Source: patent US9926282B2, “Phthalazinones and isoquinolinones as rock inhibitors” (BRISTOL-MYERS SQUIBB COMPANY, priority 2013, dated 2018)

Assays:
ROCK1 = ROCK1 (Homo sapiens (Human), UniProt Q13464); assay: ROCK assay (LABCHIP peptide phosphorylation), ROCK1; format: biochemical; conditions: 5 μM ATP, 1.5 μM peptide substrate; read-out: ROCK1 IC50
ROCK2 = ROCK2 (Homo sapiens (Human), UniProt O75116); assay: ROCK assay (LABCHIP peptide phosphorylation), ROCK2; format: biochemical; conditions: 5 μM ATP, 1.5 μM peptide substrate
ROCK2, sequence (O75116 whole entry, species assumed): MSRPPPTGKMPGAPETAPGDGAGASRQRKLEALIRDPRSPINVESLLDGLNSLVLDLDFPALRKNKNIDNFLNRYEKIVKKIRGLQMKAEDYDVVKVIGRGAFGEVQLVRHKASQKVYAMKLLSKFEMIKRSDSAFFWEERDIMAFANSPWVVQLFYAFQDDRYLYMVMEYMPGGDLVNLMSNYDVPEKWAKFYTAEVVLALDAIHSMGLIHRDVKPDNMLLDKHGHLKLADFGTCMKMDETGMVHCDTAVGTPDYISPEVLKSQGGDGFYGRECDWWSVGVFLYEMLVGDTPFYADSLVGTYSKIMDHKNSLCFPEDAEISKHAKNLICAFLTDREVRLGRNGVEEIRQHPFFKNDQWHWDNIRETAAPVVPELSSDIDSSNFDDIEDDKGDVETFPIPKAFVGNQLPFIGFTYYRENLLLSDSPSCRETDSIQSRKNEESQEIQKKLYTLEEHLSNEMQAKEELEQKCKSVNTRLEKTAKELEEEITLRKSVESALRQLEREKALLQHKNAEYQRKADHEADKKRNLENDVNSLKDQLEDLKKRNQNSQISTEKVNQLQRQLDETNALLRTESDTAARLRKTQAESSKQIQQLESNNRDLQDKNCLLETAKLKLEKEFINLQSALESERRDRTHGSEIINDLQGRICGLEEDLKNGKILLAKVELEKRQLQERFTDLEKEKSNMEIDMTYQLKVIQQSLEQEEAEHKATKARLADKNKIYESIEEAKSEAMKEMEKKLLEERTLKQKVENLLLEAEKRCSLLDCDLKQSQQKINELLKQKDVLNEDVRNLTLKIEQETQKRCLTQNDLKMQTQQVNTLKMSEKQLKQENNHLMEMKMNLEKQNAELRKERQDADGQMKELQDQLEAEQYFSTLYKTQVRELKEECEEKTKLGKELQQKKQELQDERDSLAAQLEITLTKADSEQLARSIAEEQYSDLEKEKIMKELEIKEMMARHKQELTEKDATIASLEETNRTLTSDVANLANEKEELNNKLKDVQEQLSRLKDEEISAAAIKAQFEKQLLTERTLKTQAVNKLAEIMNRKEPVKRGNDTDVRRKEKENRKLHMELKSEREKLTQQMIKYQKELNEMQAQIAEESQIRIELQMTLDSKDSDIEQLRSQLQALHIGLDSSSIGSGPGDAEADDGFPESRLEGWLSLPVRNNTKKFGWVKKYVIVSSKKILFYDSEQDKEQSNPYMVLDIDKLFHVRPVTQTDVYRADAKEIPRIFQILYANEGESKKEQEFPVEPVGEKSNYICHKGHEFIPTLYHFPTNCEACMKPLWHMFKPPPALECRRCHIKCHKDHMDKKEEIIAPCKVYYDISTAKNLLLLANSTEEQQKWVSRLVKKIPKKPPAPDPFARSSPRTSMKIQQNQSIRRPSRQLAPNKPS

ROCK1, sequence (Q13464 whole entry, species assumed): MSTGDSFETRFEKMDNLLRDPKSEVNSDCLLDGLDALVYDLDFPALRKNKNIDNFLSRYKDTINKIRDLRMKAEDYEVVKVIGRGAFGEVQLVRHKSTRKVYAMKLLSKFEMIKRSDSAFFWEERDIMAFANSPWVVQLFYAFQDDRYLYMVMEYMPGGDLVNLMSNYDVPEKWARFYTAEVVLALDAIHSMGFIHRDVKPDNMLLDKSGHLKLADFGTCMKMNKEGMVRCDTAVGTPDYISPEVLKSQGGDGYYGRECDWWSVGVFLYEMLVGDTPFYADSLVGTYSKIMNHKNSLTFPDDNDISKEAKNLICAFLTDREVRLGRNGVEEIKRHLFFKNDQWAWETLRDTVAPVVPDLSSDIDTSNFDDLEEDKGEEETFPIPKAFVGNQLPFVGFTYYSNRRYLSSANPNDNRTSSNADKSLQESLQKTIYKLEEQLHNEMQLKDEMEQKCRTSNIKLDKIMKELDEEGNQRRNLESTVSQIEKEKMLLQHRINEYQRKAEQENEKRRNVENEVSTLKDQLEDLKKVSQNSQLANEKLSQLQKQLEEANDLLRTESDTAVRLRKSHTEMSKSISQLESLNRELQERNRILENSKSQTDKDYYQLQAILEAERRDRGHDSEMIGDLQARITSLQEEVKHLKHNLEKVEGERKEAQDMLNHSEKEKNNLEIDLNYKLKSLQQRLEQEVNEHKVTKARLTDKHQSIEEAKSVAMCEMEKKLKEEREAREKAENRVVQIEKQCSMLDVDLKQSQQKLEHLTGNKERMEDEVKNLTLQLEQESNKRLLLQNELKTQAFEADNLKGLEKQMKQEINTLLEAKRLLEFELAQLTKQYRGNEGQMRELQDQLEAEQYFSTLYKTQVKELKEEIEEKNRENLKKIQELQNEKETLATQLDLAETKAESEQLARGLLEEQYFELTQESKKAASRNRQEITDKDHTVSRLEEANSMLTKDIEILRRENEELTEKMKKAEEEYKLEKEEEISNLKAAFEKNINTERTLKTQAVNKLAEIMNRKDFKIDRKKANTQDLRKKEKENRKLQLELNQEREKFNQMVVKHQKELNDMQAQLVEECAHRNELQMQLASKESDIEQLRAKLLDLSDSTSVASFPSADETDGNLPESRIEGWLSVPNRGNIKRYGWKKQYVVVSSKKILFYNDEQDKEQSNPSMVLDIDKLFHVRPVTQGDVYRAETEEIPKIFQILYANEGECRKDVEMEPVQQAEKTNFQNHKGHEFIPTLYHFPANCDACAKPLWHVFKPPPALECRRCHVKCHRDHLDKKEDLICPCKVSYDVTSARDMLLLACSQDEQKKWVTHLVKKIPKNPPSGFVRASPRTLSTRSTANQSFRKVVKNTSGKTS

Row | SMILES | IC50 (ROCK1) [nM] | IC50 (ROCK2) [nM]
1 | O=C(Nc1ccc(-c2n[nH]c(=O)c3ccccc23)cc1)c1cn2ccncc2n1 [Example 133, N-[4-(4-oxo-3,4-dihydrophthalazin-1-yl)phenyl]imidazo[1,2-a]pyrazine-2-carboxamide] | 101 to 1000 | 0.1 to 100
2 | O=C(Nc1ccc(-c2n[nH]c(=O)c3ccccc23)cc1)c1cn2c(n1)CCCC2 [Example 134, N-[4-(4-oxo-3,4-dihydrophthalazin-1-yl)phenyl]-5H,6H,7H,8H-imidazo[1,2-a]pyridine-2-carboxamide] | 101 to 1000 | 0.1 to 100
3 | O=C(Nc1ccc(-c2n[nH]c(=O)c3ccccc23)cc1)c1c[nH]c2ncccc12 [Example 135, N-[4-(4-oxo-3,4-dihydrophthalazin-1-yl)phenyl]-1H-pyrrolo[2,3-b]pyridine-3-carboxamide] | 101 to 1000 | 0.1 to 100
4 | O=C(Nc1ccc(-c2n[nH]c(=O)c3ccccc23)cc1)c1cc2ccccc2n1Cc1ccccc1 [Example 136, 1-benzyl-N-[4-(4-oxo-3,4-dihydrophthalazin-1-yl)phenyl]-1H-indole-2-carboxamide] | 1000 to 50000 | 0.1 to 100
5 | CC(C)(O)Cn1nc(C(=O)Nc2ccc(-c3n[nH]c(=O)c4ccccc34)cc2)c2ccccc21 [Example 137, 1-(2-hydroxy-2-methylpropyl)-N-[4-(4-oxo-3,4-dihydrophthalazin-1-yl)phenyl]-1H-indazole-3-carboxamide] | 0.1 to 100 | 0.1 to 100
6 | CC(C)(O)Cn1cc(C(=O)Nc2ccc(-c3n[nH]c(=O)c4ccccc34)cc2)c2ccccc21 [Example 138, 1-(2-hydroxy-2-methylpropyl)-N-[4-(4-oxo-3,4-dihydrophthalazin-1-yl)phenyl]-1H-indole-3-carboxamide] | 0.1 to 100 | 0.1 to 100
7 | Cc1ccn2c(C(=O)Nc3ccc(-c4n[nH]c(=O)c5ccccc45)cc3)c(C)nc2c1 [Example 139, 2,7-dimethyl-N-[4-(4-oxo-3,4-dihydrophthalazin-1-yl)phenyl]imidazo[1,2-a]pyridine-3-carboxamide] | 0.1 to 100 | 0.1 to 100
8 | CCc1nc2ncccn2c1C(=O)Nc1ccc(-c2n[nH]c(=O)c3ccccc23)cc1 [Example 140, 2-ethyl-N-[4-(4-oxo-3,4-dihydrophthalazin-1-yl)phenyl]imidazo[1,2-a]pyrimidine-3-carboxamide] | 0.1 to 100 | 0.1 to 100
9 | COc1ccc2c(C(=O)Nc3ccc(-c4n[nH]c(=O)c5ccccc45)cc3)cnn2c1 [Example 141, 6-methoxy-N-[4-(4-oxo-3,4-dihydrophthalazin-1-yl)phenyl]pyrazolo[1,5-a]pyridine-3-carboxamide] | 0.1 to 100 | 0.1 to 100
10 | O=C(Nc1ccc(-c2n[nH]c(=O)c3ccccc23)cc1)c1c2ccccc2nn1CC1COC1 [Example 143, 2-(oxetan-3-ylmethyl)-N-[4-(4-oxo-3,4-dihydrophthalazin-1-yl)phenyl]-2H-indazole-3-carboxamide] | 1000 to 50000 | 1000 to 50000
11 | CC1(Cn2nc(C(=O)Nc3ccc(-c4n[nH]c(=O)c5ccccc45)cc3)c3ccccc32)COC1 [Example 145, 1-[(3-methyloxetan-3-yl)methyl]-N-[4-(4-oxo-3,4-dihydrophthalazin-1-yl)phenyl]-1H-indazole-3-carboxamide] | 0.1 to 100 | 0.1 to 100
12 | O=C(Nc1ccc(-c2n[nH]c(=O)c3ccccc23)cc1)c1nn(CC2CCOC2)c2ccccc12 (stereo not shown) [Example 146, N-[4-(4-oxo-3,4-dihydrophthalazin-1-yl)phenyl]-1-(oxolan-3-ylmethyl)-1H-indazole-3-carboxamide] | 0.1 to 100 | 0.1 to 100
13 | O=C(Nc1ccc(-c2n[nH]c(=O)c3ccccc23)cc1)c1nn(CC(O)COCc2ccccc2)c2ccccc12 (stereo not shown) [Example 147, 1-[3-(benzyloxy)-2-hydroxypropyl]-N-[4-(4-oxo-3,4-dihydrophthalazin-1-yl)phenyl]-1H-indazole-3-carboxamide] | 0.1 to 100 | 0.1 to 100
14 | O=C(Nc1ccc(-c2n[nH]c(=O)c3ccccc23)cc1)c1nn(CC2CCCO2)c2ccccc12 (stereo not shown) [Example 148, N-[4-(4-oxo-3,4-dihydrophthalazin-1-yl)phenyl]-1-(oxolan-2-ylmethyl)-1H-indazole-3-carboxamide] | 0.1 to 100 | 0.1 to 100
15 | O=C(Nc1ccc(-c2n[nH]c(=O)c3ccccc23)cc1)c1nn(CC2CCOCC2)c2ccccc12 [Example 150, 1-(oxan-4-ylmethyl)-N-[4-(4-oxo-3,4-dihydrophthalazin-1-yl)phenyl]-1H-indazole-3-carboxamide] | 0.1 to 100 | 0.1 to 100
16 | COCCn1nc(C(=O)Nc2ccc(-c3n[nH]c(=O)c4ccccc34)cc2)c2ccccc21 [Example 151, 1-(2-methoxyethyl)-N-[4-(4-oxo-3,4-dihydrophthalazin-1-yl)phenyl]-1H-indazole-3-carboxamide] | 0.1 to 100 | 0.1 to 100

Row | SMILES | IC50 (ROCK1) [nM] | IC50 (ROCK2) [nM]
17 | CC(O)Cn1nc(C(=O)Nc2ccc(-c3n[nH]c(=O)c4ccccc34)cc2)c2ccccc21 (stereo not shown) [Example 153, 1-(2-hydroxypropyl)-N-[4-(4-oxo-3,4-dihydrophthalazin-1-yl)phenyl]-1H-indazole-3-carboxamide] | 0.1 to 100 | 0.1 to 100
18 | O=C(Nc1ccc(-c2n[nH]c(=O)c3ccccc23)cc1)c1nn(CCO)c2ccccc12 [Example 155, 1-(2-hydroxyethyl)-N-[4-(4-oxo-3,4-dihydrophthalazin-1-yl)phenyl]-1H-indazole-3-carboxamide] | 0.1 to 100 | 0.1 to 100
19 | CC(C)(O)Cn1nc(C(=O)Nc2ccc(-c3n[nH]c(=O)c4ccccc34)cc2)c2ccc(F)cc21 [Example 158, 6-fluoro-1-(2-hydroxy-2-methylpropyl)-N-[4-(4-oxo-3,4-dihydrophthalazin-1-yl)phenyl]-1H-indazole-3-carboxamide] | 0.1 to 100 | 0.1 to 100
20 | O=C(Nc1ccc(-c2n[nH]c(=O)c3ccccc23)cc1)c1nn(CC2COC2)c2cc(F)ccc12 [Example 159, 6-fluoro-1-(oxetan-3-ylmethyl)-N-[4-(4-oxo-3,4-dihydrophthalazin-1-yl)phenyl]-1H-indazole-3-carboxamide] | 0.1 to 100 | 0.1 to 100
21 | O=C(Nc1ccc(-c2n[nH]c(=O)c3ccccc23)cc1)c1nn(Cc2ccccn2)c2ccccc12 [Example 160, N-[4-(4-oxo-3,4-dihydrophthalazin-1-yl)phenyl]-1-(pyridin-2-ylmethyl)-1H-indazole-3-carboxamide] | 0.1 to 100 | 0.1 to 100
22 | O=C(Nc1ccc(-c2n[nH]c(=O)c3ccccc23)cc1)c1nn(Cc2cccnc2)c2ccccc12 [Example 161, N-[4-(4-oxo-3,4-dihydrophthalazin-1-yl)phenyl]-1-(pyridin-3-ylmethyl)-1H-indazole-3-carboxamide] | 0.1 to 100 | 0.1 to 100
23 | COCCCn1nc(C(=O)Nc2ccc(-c3n[nH]c(=O)c4ccccc34)cc2)c2ccccc21 [Example 163, 1-(3-methoxypropyl)-N-[4-(4-oxo-3,4-dihydrophthalazin-1-yl)phenyl]-1H-indazole-3-carboxamide] | 0.1 to 100 | 0.1 to 100
24 | O=C(Nc1ccc(-c2n[nH]c(=O)c3ccccc23)cc1)c1nn(CCCO)c2ccccc12 [Example 164, 1-(3-hydroxypropyl)-N-[4-(4-oxo-3,4-dihydrophthalazin-1-yl)phenyl]-1H-indazole-3-carboxamide] | 0.1 to 100 | 0.1 to 100
25 | O=C(Nc1ccc(-c2n[nH]c(=O)c3ccccc23)cc1)c1nn(Cc2ccncc2)c2ccccc12 [Example 165, N-[4-(4-oxo-3,4-dihydrophthalazin-1-yl)phenyl]-1-(pyridin-4-ylmethyl)-1H-indazole-3-carboxamide] | 0.1 to 100 | 0.1 to 100
26 | O=C(Nc1ccc(-c2n[nH]c(=O)c3ccccc23)cc1)c1c[nH]c2ccncc12 [Example 166, N-[4-(4-oxo-3,4-dihydrophthalazin-1-yl)phenyl]-1H-pyrrolo[3,2-c]pyridine-3-carboxamide] | 101 to 1000 | 0.1 to 100
27 | CC(C)(O)Cn1nc(C(=O)Nc2ccc(-c3n[nH]c(=O)c4ccccc34)cc2)c2cc(F)ccc21 [Example 167, 5-fluoro-1-(2-hydroxy-2-methylpropyl)-N-[4-(4-oxo-3,4-dihydrophthalazin-1-yl)phenyl]-1H-indazole-3-carboxamide] | 0.1 to 100 | 0.1 to 100
28 | O=C(Nc1ccc(-c2n[nH]c(=O)c3ccccc23)cc1)c1nn(CC2CCCCO2)c2ccccc12 (stereo not shown) [Example 168, 1-(oxan-2-ylmethyl)-N-[4-(4-oxo-3,4-dihydrophthalazin-1-yl)phenyl]-1H-indazole-3-carboxamide] | 0.1 to 100 | 0.1 to 100
29 | CC(C)(O)Cn1cc(C(=O)Nc2ccc(-c3n[nH]c(=O)c4ccccc34)cc2)c2cccnc21 [Example 169, 1-(2-hydroxy-2-methylpropyl)-N-[4-(4-oxo-3,4-dihydrophthalazin-1-yl)phenyl]-1H-pyrrolo[2,3-b]pyridine-3-carboxamide] | 0.1 to 100 | 0.1 to 100
30 | CC(C)(O)COc1ccc2c(C(=O)Nc3ccc(-c4n[nH]c(=O)c5ccccc45)cc3)cnn2c1 [Example 172, 6-(2-hydroxy-2-methylpropoxy)-N-[4-(4-oxo-3,4-dihydrophthalazin-1-yl)phenyl]pyrazolo[1,5-a]pyridine-3-carboxamide] | 0.1 to 100 | 0.1 to 100
31 | O=C(Nc1ccc(-c2n[nH]c(=O)c3ccccc23)cc1)c1nn(CC2CCOC2)c2ccc(F)cc12 (stereo not shown) [Example 173, 5-fluoro-N-[4-(4-oxo-3,4-dihydrophthalazin-1-yl)phenyl]-1-(oxolan-3-ylmethyl)-1H-indazole-3-carboxamide] | 0.1 to 100 | 0.1 to 100
32 | O=C(Nc1ccc(-c2n[nH]c(=O)c3ccccc23)cc1)c1nn(CC2CCOC2)c2cc(F)ccc12 (stereo not shown) [Example 174, 6-fluoro-N-[4-(4-oxo-3,4-dihydrophthalazin-1-yl)phenyl]-1-(oxolan-3-ylmethyl)-1H-indazole-3-carboxamide] | 0.1 to 100 | 0.1 to 100
